Measured values published in US9062066B2, “Anti-inflammatory compound having inhibitory activity against multiple tyrosine kinases and pharmaceutical composition containing same” (KOREA INSTITUTE OF SCIENCE AND TECHNOLOGY, priority 2010, dated 2015).

Legend:
[1] = tested on: house mite allergic substance-induced asthma in mice; experiment: house mite allergen asthma animal model; type: in vivo; conditions: for mucin in lung tissue (periodic Schiff staining): 20 ul intratracheal, LCB 03-0110 0.1%, Budesonide 0.03%
[2] = tested on: IL-12 synthesis in J774A.1 macrophage; experiment: cells; conditions: Mus musculus, J774.A1, read-out: inhibition of LPS-induced IL-12 synthesis
[3] = tested on: full excisional ear wounds in New Zealand white rabbits; conditions: 0.1% topical
Lyn tyrosine kinase = Lyn tyrosine kinase (Homo sapiens (Human), UniProt P07948); experiment: in vitro Lyn tyrosine kinase inhibition; type: biochemical; conditions: read-out: % inhibition against Lyn
[4] = tested on: NO synthesis in J744A.1 macrophage; experiment: inhibition of nitric oxide (NO) synthesis in LPS-activated macrophages (Griess reagent); type: cell-based; conditions: 24 h, read-out: Inhibition (%) of NO synthesis
[5] = tested on: TNCB-induced atopic dermatitis in Nc/Nga mice; conditions: 0.1% transdermal every day for two weeks
[6] = tested on: oxazolone-induced skin inflammation of Balb/C mouse ears; experiment: mouse skin inflammatory model induced by oxazolone (ear thickness); type: in vivo; conditions: mouse, in vivo
Summary of the method: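 Oxazolone was used to induce skin inflammation in the ears of 8-week-old Balb/C mice. Ear thickness was measured by caliper before induction, again at 36 h to capture inflammatory swelling, and averaged per group (n=4).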

[7] = tested on: α-smooth muscle actin protein expression in skin fibroblast cells; experiment: inhibition of α-smooth muscle actin expression in fibroblast activated by type I collagen and TGF-β1 (western blotting); type: cell-based, Balb/C mouse; conditions: Mus musculus, 48 h, read-out: Inhibition (%) of α-smooth muscle actin increase
Summary of the method: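 α-Smooth muscle actin protein was detected by western blotting with chemiluminescence on X-ray film. Levels were quantified by densitometry of the band.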

DDR2 tyrosine kinase = DDR2 tyrosine kinase (Homo sapiens (Human), UniProt Q16832); experiment: in vitro DDR2 tyrosine kinase inhibition (GST-fused kinase domain); type: biochemical; conditions: read-out: % inhibition against DDR2
Hck tyrosine kinase = Hck tyrosine kinase (Homo sapiens (Human), UniProt P08631); experiment: in vitro Hck tyrosine kinase inhibition; type: biochemical; conditions: read-out: % inhibition against Hck
[8] = tested on: TNF-α synthesis in J744A.1 macrophages; experiment: inhibition of TNF-α synthesis in LPS-activated macrophages (ELISA); type: cell-based; conditions: Macrophage, 6 h, read-out: Inhibition (%) of TNF-α synthesis
DDR1 tyrosine kinase = DDR1 tyrosine kinase (Homo sapiens (Human), UniProt Q08345); experiment: in vitro DDR1 tyrosine kinase inhibition (GST-fused kinase domain); type: biochemical; conditions: read-out: % inhibition against DDR1
RBL-2H3 mast cells = experiment: cells; conditions: Rattus norvegicus, RBL-2H3, read-out: inhibition of hexosaminidase release (degranulation)
Fgr tyrosine kinase = Fgr tyrosine kinase (Homo sapiens (Human), UniProt P09769); experiment: in vitro Fgr tyrosine kinase inhibition; type: biochemical; conditions: read-out: % inhibition against Fgr
Sequence of Fgr tyrosine kinase (P09769 whole entry): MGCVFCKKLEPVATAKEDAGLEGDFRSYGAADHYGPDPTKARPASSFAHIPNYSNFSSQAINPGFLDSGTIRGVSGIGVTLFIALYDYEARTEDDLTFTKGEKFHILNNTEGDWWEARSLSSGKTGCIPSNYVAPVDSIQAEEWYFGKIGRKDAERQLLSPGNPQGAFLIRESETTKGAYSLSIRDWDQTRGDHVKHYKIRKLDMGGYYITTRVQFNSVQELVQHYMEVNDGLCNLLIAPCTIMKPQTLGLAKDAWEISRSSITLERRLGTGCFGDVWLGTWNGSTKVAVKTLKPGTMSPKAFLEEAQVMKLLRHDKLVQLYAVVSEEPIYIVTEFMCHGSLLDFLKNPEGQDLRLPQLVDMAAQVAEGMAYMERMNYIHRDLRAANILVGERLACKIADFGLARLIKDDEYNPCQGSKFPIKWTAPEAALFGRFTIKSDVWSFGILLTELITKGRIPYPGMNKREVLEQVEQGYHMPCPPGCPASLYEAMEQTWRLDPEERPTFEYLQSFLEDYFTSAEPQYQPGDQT

Sequence of Lyn tyrosine kinase (P07948 whole entry): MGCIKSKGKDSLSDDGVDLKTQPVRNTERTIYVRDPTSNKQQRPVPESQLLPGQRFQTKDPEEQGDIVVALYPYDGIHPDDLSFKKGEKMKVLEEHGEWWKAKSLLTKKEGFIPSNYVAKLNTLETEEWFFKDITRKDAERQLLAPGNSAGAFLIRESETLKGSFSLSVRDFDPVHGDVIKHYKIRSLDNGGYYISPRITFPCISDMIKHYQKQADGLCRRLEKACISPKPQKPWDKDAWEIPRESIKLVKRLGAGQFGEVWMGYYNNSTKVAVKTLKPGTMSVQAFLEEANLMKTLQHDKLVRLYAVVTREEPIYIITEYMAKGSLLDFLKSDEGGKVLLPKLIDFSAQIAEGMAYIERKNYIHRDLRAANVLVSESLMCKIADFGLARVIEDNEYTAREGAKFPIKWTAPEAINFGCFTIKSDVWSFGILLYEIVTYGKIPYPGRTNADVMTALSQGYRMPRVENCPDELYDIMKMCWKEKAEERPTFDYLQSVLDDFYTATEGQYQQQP
Sequence of DDR2 tyrosine kinase (Q16832 563-849): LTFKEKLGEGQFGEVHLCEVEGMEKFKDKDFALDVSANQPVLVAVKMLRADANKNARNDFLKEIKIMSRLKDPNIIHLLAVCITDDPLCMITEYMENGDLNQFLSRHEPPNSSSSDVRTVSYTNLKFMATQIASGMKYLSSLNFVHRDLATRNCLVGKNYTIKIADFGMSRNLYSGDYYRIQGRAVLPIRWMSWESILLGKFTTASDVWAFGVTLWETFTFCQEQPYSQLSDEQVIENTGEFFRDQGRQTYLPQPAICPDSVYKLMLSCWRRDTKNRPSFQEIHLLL
Sequence of Hck tyrosine kinase (P08631 whole entry): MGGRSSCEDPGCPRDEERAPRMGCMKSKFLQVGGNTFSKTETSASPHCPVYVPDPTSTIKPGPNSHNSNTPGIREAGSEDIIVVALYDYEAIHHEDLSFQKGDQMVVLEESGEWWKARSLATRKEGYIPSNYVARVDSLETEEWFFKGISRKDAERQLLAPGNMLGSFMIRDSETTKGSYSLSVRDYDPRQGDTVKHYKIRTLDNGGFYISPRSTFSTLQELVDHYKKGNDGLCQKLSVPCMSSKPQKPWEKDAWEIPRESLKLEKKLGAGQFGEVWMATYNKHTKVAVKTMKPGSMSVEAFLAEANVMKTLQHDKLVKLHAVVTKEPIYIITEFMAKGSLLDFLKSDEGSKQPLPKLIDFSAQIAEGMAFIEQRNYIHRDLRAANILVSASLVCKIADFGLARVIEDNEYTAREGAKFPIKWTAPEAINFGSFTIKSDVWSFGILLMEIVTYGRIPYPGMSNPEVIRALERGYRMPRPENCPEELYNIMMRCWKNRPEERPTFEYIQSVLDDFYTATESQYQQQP
Sequence of DDR1 tyrosine kinase (Q08345 610-905): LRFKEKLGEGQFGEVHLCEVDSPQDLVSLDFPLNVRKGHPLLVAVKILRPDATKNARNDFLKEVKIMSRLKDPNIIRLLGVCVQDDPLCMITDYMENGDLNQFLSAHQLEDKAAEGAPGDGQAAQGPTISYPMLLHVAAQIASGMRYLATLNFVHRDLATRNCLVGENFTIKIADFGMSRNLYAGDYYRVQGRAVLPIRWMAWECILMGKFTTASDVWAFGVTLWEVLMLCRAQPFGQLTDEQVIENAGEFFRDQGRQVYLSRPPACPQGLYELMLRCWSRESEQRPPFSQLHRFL

Structure (SMILES)	mucin in lung tissue (periodic Schiff staining) [1]	eosinophil penetration into lung tissue ([1]; 20 ul of 0.1% intratracheal)	eotaxin in BALF ([1]; 20 ul of 0.1% intratracheal)	inhibition at 1 µM [2] [%]	wound closing rate ([3]; 150 μL per wound, every three days, versus carrier solution)	macrophages (F4/80) and activated myoblast cells (alpha smooth muscle actin) in wound tissue ([3]; three days after wounding)	inhibition at 1 µM (Lyn tyrosine kinase) [%]	inhibition at 10 µM [4] [%]	reduction of epidermal thickness compared to the TNCB group [5]	reduction of mast cell count compared to the TNCB group [5]	reduction of serum IgE level compared to the TNCB group [5]	reduction of transepidermal water loss (TEWL) compared to the TNCB group [5]	Inhibition (%) of increase of ear thickness [6] [%]	inhibition at 0.5 µM [7] [%]	inhibition at 1 µM (DDR2 tyrosine kinase) [%]	inhibition at 1 µM (Hck tyrosine kinase) [%]	inhibition at 10 µM [8] [%]	inhibition at 1 µM (DDR1 tyrosine kinase) [%]	inhibition at 0.3 µM (RBL-2H3 mast cells) [%]	inhibition at 1 µM (Fgr tyrosine kinase) [%]
CCCC1O[C@@H]2C[C@H]3[C@@H]4CCC5=CC(=O)C=C[C@]5(C)[C@H]4[C@@H](O)C[C@]3(C)[C@]2(C(=O)CO)O1 (stereo partly drawn) [Budesonide, reference compound]	decreased the extent of the staining	–	–	–	–	–	–	–	–	–	–	–	–	–	–	–	–	–	–	–
Oc1cccc(Nc2ccnc3cc(-c4cccc(CN5CCOCC5)c4)sc23)c1 [LCB 03-0110, 3-(2-(3-(morpholinomethyl)phenyl)thieno[3,2-b]pyridin-7-ylamino)phenol]	suppressed mucin synthesis similarly to the positive control	suppressed eosinophil penetration into lung tissue	suppression of eotaxin	~100	closed at a higher rate	suppressed the activation of macrophages and myoblast cells with a statistical significance	> 90	97	more than 60%	approximately 25%	more than 20%	more than 30%	72	82	> 90	> 80	64	> 90	≥ 80	> 80
